Data published in patent US8604038B2, “Pyrrolidine derived beta 3 adrenergic receptor agonists” (Merck Sharp & Dohme Corp., priority 2009, dated 2013).

target: T1, human β3 adrenergic receptor (Homo sapiens, UniProt P13945); assay: Beta-3 agonist in vitro functional assay (cAMP production, LANCE, transfected CHO cells); type: cell-based; settings: Table 3, CHO cells with cloned β3 receptor, ligands titrated 10^-12 M to 10^-5 M, read-out: Human β3 agonist functional activity
T1 construct: expressed in transfected cells; host or cells: CHO (Chinese hamster ovary) cells, stably transfected
T1 sequence (P13945 whole entry): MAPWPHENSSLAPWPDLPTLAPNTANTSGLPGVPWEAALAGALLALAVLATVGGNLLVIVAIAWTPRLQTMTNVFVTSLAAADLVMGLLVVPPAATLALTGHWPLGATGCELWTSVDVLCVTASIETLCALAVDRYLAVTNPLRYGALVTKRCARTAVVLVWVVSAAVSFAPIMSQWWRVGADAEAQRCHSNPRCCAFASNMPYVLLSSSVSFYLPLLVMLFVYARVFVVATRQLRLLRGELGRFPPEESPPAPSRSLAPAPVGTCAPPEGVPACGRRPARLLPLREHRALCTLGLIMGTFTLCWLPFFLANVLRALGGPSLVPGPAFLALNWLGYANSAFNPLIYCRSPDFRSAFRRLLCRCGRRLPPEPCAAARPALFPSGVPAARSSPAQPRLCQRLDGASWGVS
Method: Functional Assay: For compounds in examples 1-50, cAMP production in response to ligand is measured according to Barton, et al. (1991, Agonist-induced desensitization of D2 dopamine receptors in human Y-79 retinoblastoma cells. Mol. Pharmacol. […]:650-658) modified as follows. The cAMP production is measured using a homogenous time-resolved fluorescence resonance energy transfer immunoassay (LANCE™, Perkin Elmer) according to the manufacture's instructions. Chinese hamster ovary (CHO) cells, stably transfected with the cloned β-adrenergic receptor (β1, β2 or β3) are harvested after 3 days of subculturing. Harvesting of cells is done with Enzyme-free Dissociation Media (Specialty Media). Cells are then counted and resuspended in assay buffer (Hank's Balanced salt solution supplemented with 5 mM HEPES, […]) containing a phosphodiesterase inhibitor (IBMX, 0.6 mM). The reaction is initiated by mixing 6,000 cells in 6 μL with 6 μL Alexa Fluor labeled cAMP antibody (LANCE™ kit) which is then added to an assay well containing 12 μL of compound (diluted in assay buffer to 2× final concentration). The reaction proceeds for 30 minutes at RT and is terminated by the addition of 24 ul detection buffer (LANCE™ kit). The assay plate is then incubated for 1 h at RT and time-resolved fluorescence measured on a Perkin Elmer Envision reader or equivalent. The unknown cAMP level is determined by comparing fluorescence levels to a cAMP standard curve.
The non-selective, full agonist β-adrenergic ligand isoproterenol is used at all three receptors to determine maximal stimulation. The human β3 adrenergic receptor (AR) selective ligand (S)-N-[4-[2-[[2-hydroxy-3-(4-hydroxyphenoxy)propyl]amino]ethyl]-phenyl]-4-iodobenzenesulfonamide is used as a control in all assays. […] The EC50 is defined as the concentration of compound that gives 50% activation of its own maximum. Data are analyzed using Microsoft Excel and Graphpad Prism or an internally developed data analysis software package.
The EC50 is defined as the concentration of compound that gives 50% activation of its own maximum. Functional antagonist assays are performed similar to described above; however, unknown ligands are titrated at β-adrenergic receptor subtypes 1 and 2 at a final concentration in the assay of 10^-12 M to 10^-5 M in the presence of 10^-9 M full agonist β-adrenergic ligand isoproterenol. The EC50 is defined as the concentration of compound that gives 50% inhibition of the full agonist response. Data are analyzed using Microsoft Excel and Graphpad Prism or an internally developed data analysis software package.

EC50 [nM] | SMILES
100 to 999 | CN(Cc1nccn1C)C(=O)c1ccc(C[C@@H]2CC[C@H]([C@H](O)c3ccccc3)N2)cc1 [Example 76]
10 to 99.9 | CN(Cc1cccc(Br)n1)C(=O)c1ccc(C[C@@H]2CC[C@H]([C@H](O)c3ccccc3)N2)cc1 [Example 77]
10 to 99.9 | CN(Cc1ccc(Br)cn1)C(=O)c1ccc(C[C@@H]2CC[C@H]([C@H](O)c3ccccc3)N2)cc1 [Example 78]
100 to 999 | CN(Cc1ccncn1)C(=O)c1ccc(C[C@@H]2CC[C@H]([C@H](O)c3ccccc3)N2)cc1 [Example 79]
1 to 9.9 | CC(C)c1nccc(CN(C)C(=O)c2ccc(C[C@@H]3CC[C@H]([C@H](O)c4ccccc4)N3)cc2)n1 [Example 80]
10 to 99.9 | Cc1nccc(CN(C)C(=O)c2ccc(C[C@@H]3CC[C@H]([C@H](O)c4ccccc4)N3)cc2)n1 [Example 81]
10 to 99.9 | Cc1cc(CN(C)C(=O)c2ccc(C[C@@H]3CC[C@H]([C@H](O)c4ccccc4)N3)cc2)on1 [Example 82]
100 to 999 | CN(Cc1cccc(N2CCCC2)n1)C(=O)c1ccc(C[C@@H]2CC[C@H]([C@H](O)c3ccccc3)N2)cc1 [Example 83]
100 to 999 | CN(Cc1nc2ccccc2[nH]1)C(=O)c1ccc(C[C@@H]2CC[C@H]([C@H](O)c3ccccc3)N2)cc1 [Example 84]
< 1 | CN(Cc1n[nH]c2c1CCCC2)C(=O)c1ccc(C[C@@H]2CC[C@H]([C@H](O)c3ccccc3)N2)cc1 [Example 85]
10 to 99.9 | CN(Cc1ccon1)C(=O)c1ccc(C[C@@H]2CC[C@H]([C@H](O)c3ccccc3)N2)cc1 [Example 86]
1 to 9.9 | O=C(c1ccc(C[C@@H]2CC[C@H]([C@H](O)c3ccccc3)N2)cc1)N(CCO)Cc1ccccc1F [Example 87]
10 to 99.9 | Cc1csc(CCN(C)C(=O)c2ccc(C[C@@H]3CC[C@H]([C@H](O)c4ccccc4)N3)cc2)n1 [Example 88]
10 to 99.9 | CC(C)c1nc(CCN(C)C(=O)c2ccc(C[C@@H]3CC[C@H]([C@H](O)c4ccccc4)N3)cc2)no1 [Example 89]
< 1 | COCc1cc(CN(C)C(=O)c2ccc(C[C@@H]3CC[C@H]([C@H](O)c4ccccc4)N3)cc2)n[nH]1 [Example 90]
10 to 99.9 | CN(Cc1ccc2nccnc2c1)C(=O)c1ccc(C[C@@H]2CC[C@H]([C@H](O)c3ccccc3)N2)cc1 [Example 92]
10 to 99.9 | CC(C)c1noc(CN(C)C(=O)c2ccc(C[C@@H]3CC[C@H]([C@H](O)c4ccccc4)N3)cc2)n1 [Example 93]
10 to 99.9 | CN(Cc1cnn(-c2ccccc2)c1)C(=O)c1ccc(C[C@@H]2CC[C@H]([C@H](O)c3ccccc3)N2)cc1 [Example 97]
100 to 999 | Cc1cc2nc(CN(C)C(=O)c3ccc(C[C@@H]4CC[C@H]([C@H](O)c5ccccc5)N4)cc3)[nH]c2cc1C [Example 101]
100 to 999 | CN(Cc1nc(-c2ccncc2)no1)C(=O)c1ccc(C[C@@H]2CC[C@H]([C@H](O)c3ccccc3)N2)cc1 [Example 103]
10 to 99.9 | CCN(Cc1ccnc(C(C)C)n1)C(=O)c1ccc(C[C@@H]2CC[C@H]([C@H](O)c3ccccc3)N2)cc1 [Example 104]
10 to 99.9 | CN(Cc1ncccc1F)C(=O)c1ccc(C[C@@H]2CC[C@H]([C@H](O)c3ccccc3)N2)cc1 [Example 106]
100 to 999 | CN(Cc1cc(-c2ccncc2)on1)C(=O)c1ccc(C[C@@H]2CC[C@H]([C@H](O)c3ccccc3)N2)cc1 [Example 107]
100 to 999 | CN(Cc1cscn1)C(=O)c1ccc(C[C@@H]2CC[C@H]([C@H](O)c3ccccc3)N2)cc1 [Example 108]
100 to 999 | CN(Cc1cccc2ncccc12)C(=O)c1ccc(C[C@@H]2CC[C@H]([C@H](O)c3ccccc3)N2)cc1 [Example 109]
10 to 99.9 | CN(Cc1noc(C2CC2)n1)C(=O)c1ccc(C[C@@H]2CC[C@H]([C@H](O)c3ccccc3)N2)cc1 [Example 112]
10 to 99.9 | CN(Cc1ncc[nH]1)C(=O)c1ccc(C[C@@H]2CC[C@H]([C@H](O)c3ccccc3)N2)cc1 [Example 113]

Second part, the compound before the results:

SMILES | EC50 [nM]
CN(Cc1cc2ccccc2cn1)C(=O)c1ccc(C[C@@H]2CC[C@H]([C@H](O)c3ccccc3)N2)cc1 [Example 52] | 100 to 999
CN(CCc1cccnc1)C(=O)c1ccc(C[C@@H]2CC[C@H]([C@H](O)c3ccccc3)N2)cc1 [Example 53] | 10 to 99.9
CN(Cc1ccccn1)C(=O)c1ccc(C[C@@H]2CC[C@H]([C@H](O)c3ccccc3)N2)cc1 [Example 54] | 100 to 999
CN(Cc1cccnn1)C(=O)c1ccc(C[C@@H]2CC[C@H]([C@H](O)c3ccccc3)N2)cc1 [Example 55] | 100 to 999
CN(Cc1cccnn1)C(=O)c1ccc(C[C@@H]2CC[C@H]([C@H](O)c3ccc(N)nc3)N2)cc1 [Example 56] | 10 to 99.9
CN(Cc1cc(Br)ccn1)C(=O)c1ccc(C[C@@H]2CC[C@H]([C@H](O)c3ccccc3)N2)cc1 [Example 57] | 10 to 99.9
CN(Cc1cnn(-c2ccccc2)n1)C(=O)c1ccc(C[C@@H]2CC[C@H]([C@H](O)c3ccccc3)N2)cc1 [Example 58] | 10 to 99.9
CN(Cc1cccnc1)C(=O)c1ccc(C[C@@H]2CC[C@H]([C@H](O)c3ccc(N)nc3)N2)cc1 [Example 59] | < 1
CN(Cc1cccc(F)c1)C(=O)c1ccc(C[C@@H]2CC[C@H]([C@H](O)c3ccccc3)N2)cc1 [Example 60] | 1 to 9.9
CN(Cc1cnc2ccccc2n1)C(=O)c1ccc(C[C@@H]2CC[C@H]([C@H](O)c3ccccc3)N2)cc1 [Example 61] | 1 to 9.9
Cc1cccnc1CN(C)C(=O)c1ccc(C[C@@H]2CC[C@H]([C@H](O)c3ccccc3)N2)cc1 [Example 62] | 10 to 99.9
COCCN(C)C(=O)c1ccc(C[C@@H]2CC[C@H]([C@H](O)c3ccccc3)N2)cc1 [Example 64] | 10 to 99.9
COc1ccccc1CN(C)C(=O)c1ccc(C[C@@H]2CC[C@H]([C@H](O)c3ccccc3)N2)cc1 [Example 65] | 10 to 99.9
Cc1nc(CN(C)C(=O)c2ccc(C[C@@H]3CC[C@H]([C@H](O)c4ccccc4)N3)cc2)cs1 [Example 66] | 10 to 99.9
Cc1cccc(CN(C)C(=O)c2ccc(C[C@@H]3CC[C@H]([C@H](O)c4ccccc4)N3)cc2)n1 [Example 67] | 10 to 99.9
CN(Cc1ccccc1)C(=O)c1ccc(C[C@@H]2CC[C@H]([C@H](O)c3ccccc3)N2)cc1 [Example 68] | 100 to 999
CN(C)C(=O)c1ccc(C[C@@H]2CC[C@H]([C@H](O)c3ccccc3)N2)cc1 [Example 69] | 10 to 99.9
CN(Cc1nc2ccccc2n1C)C(=O)c1ccc(C[C@@H]2CC[C@H]([C@H](O)c3ccccc3)N2)cc1 [Example 70] | 100 to 999
CN(Cc1ccncc1)C(=O)c1ccc(C[C@@H]2CC[C@H]([C@H](O)c3ccccc3)N2)cc1 [Example 71] | 100 to 999
CN(Cc1nnn(C)n1)C(=O)c1ccc(C[C@@H]2CC[C@H]([C@H](O)c3ccccc3)N2)cc1 [Example 72] | 10 to 99.9
CN(Cc1ncn(C)n1)C(=O)c1ccc(C[C@@H]2CC[C@H]([C@H](O)c3ccccc3)N2)cc1 [Example 73] | 100 to 999
CN(Cc1cnccn1)C(=O)c1ccc(C[C@@H]2CC[C@H]([C@H](O)c3ccccc3)N2)cc1 [Example 74] | 10 to 99.9
CN(Cc1nn(C)c(Cl)c1Cl)C(=O)c1ccc(C[C@@H]2CC[C@H]([C@H](O)c3ccccc3)N2)cc1 [Example 75] | 1 to 9.9
CN(CCC1CCOCC1)C(=O)c1ccc(C[C@@H]2CC[C@H]([C@H](O)c3ccccc3)N2)cc1 [Example 99] | 100 to 999
